This note sets out measurements from patent US20240247298A1, “METHOD FOR DETECTING LIVE LACTIC ACID BACTERIA WITH CARBOHYDRATE METABOLISM ACTIVITY” (KABUSHIKI KAISHA YAKULT HONSHA, priority 2021, published 2024).

Common to all, as to assay type: cell-based, Lacticaseibacillus paracasei YIT 9029
The test system of assay [1] is LcS. The experiment in a line: cF excretion activity by addition of various saccharides of LcS (cFDA/PI double staining, flow cytometry). The following applies: LcS from New Yakult suspended in 1% saccharide solution; cFDA 50 μM, PI 30 μM. The procedure:
(§1) A beverage or food containing LcS (New Yakult: manufactured by Yakult Honsha Co., Ltd.) stored at about 4° C. within 16 days after production was diluted 10-fold with DPBS, then washed by centrifugation three times with DPBS, and the cell pellet was collected. The cell pellet obtained above was suspended in a 1% (V/W) solution in which a saccharide shown in Table 1 was dissolved in purified water. Further, the suspension was diluted with DPBS so that the cell concentration in the suspension was about 10^6 cells/mL, and cFDA was added thereto at a final concentration of 50 μM, and the resultant was left to stand at 30° C. for 15 minutes. Subsequently, propidium iodide was added thereto at a final concentration of 30 μM, and the resultant was left to stand at room temperature for 15 minutes, and then subjected to FACSAriaTM fusion (manufactured by Becton Dickinson) to measure the cF fluorescence intensity. A case where 90% or more of the total bacterial cells were counted as cF^- was determined to have cF excretion activity. In Table 1, those determined to have cF excretion activity are indicated by +, and those determined to have no cF excretion activity are indicated by -. The assimilation of a saccharide was examined using AP[…] (manufactured by bioMérieux Japan Co., Ltd.), which is a kit for identifying bacteria. A saccharide that can be assimilated by LcS is indicated by +, and a saccharide that cannot be assimilated by LCS is indicated by -.
Background: A flow cytometer gives signals particle by particle.

Assay [2] concerns LcS. Kind of assay: Assimilation of a saccharide examined using API50cH. The arrangement: key: A saccharide that can be assimilated by LcS is indicated by +; a saccharide that cannot be assimilated by LCS is indicated by −. The following applies: assimilation by LcS, API50cH kit. As for the experimental part: as §1, with “The” for “A beverage or food containing LcS (New Yakult: manufactured by Yakult Honsha Co., Ltd.) stored at about 4° C. within 16 days after production was diluted 10-fold with DPBS, then washed by centrifugation three times with DPBS, and the cell pellet was collected. The”

The subject of assay [3] is LcS. The experiment in a line: Time course of cF accumulation and cF excretion of LcS. As for the experimental part: A cultured bacterial solution of LcS in MRS medium was washed by centrifugation with Dulbecco's PBS (DPBS: manufactured by Thermo Fisher Scientific, Inc.), thereby removing saccharides. CFDA was added to the DPBS suspension of LcS obtained above at a final concentration of 50 μM (t=0), and cF accumulation from 0 to 20 minutes thereafter was examined by Gallios. In addition, to the DPBS suspension of LcS obtained above, CFDA was added at a final concentration of 50 μM, and the resultant was left to stand at 30° C. for 30 minutes to allow cF to accumulate in the bacterial cells. Subsequently, glucose was added at a final concentration of 10 mM (t=0), and cF excretion in 15 minutes thereafter was examined. Further, to the DPBS suspension of LcS obtained above, CFDA was added at a final concentration of 50 μM, and the resultant was left to stand at 30° C. for 30 minutes to allow cF to accumulate in the bacterial cells. Subsequently, glucose was added at a final concentration of 0.001 mM, 0.01 mM, 0.1 mM, or 1 mM (t=0), and cF excretion in 15 minutes thereafter was examined.

In the case of `O=CC[C@@H](O)[C@@H](O)[C@H](O)CO` [2-deoxy-D-galactose], the cF excretion activity result in the assay with LcS [1] is recorded as “− (those determined to have no cF excretion activity are indicated by −)”.
On the same count and under the same terms, the entry for `O=CC[C@@H](O)[C@H](O)[C@H](O)CO` [2-deoxy-D-glucose] is “− (those determined to have no cF excretion activity are indicated by −)”.
As to `O=C[C@H](O)[C@@H](O)[C@@H](O)[C@H](O)CO` [D-galactose], in the assay on LcS [1], the cF excretion activity entry is reported as “+ (A case where 90% or more of the total bacterial cells were counted as cF^− was determined to have cF excretion activity)”. In addition, the Assimilability result in the assay with LcS [2] is “+”.
As to `O=C[C@H](O)[C@@H](O)[C@H](O)[C@H](O)CO` [D-glucose], the cF excretion activity result in the assay on LcS [1] is “+ (A case where 90% or more of the total bacterial cells were counted as cF^− was determined to have cF excretion activity)”. In addition, the Assimilability entry with LcS [2] is “+”. In addition, the cF excretion result in the assay on LcS [3] (glucose final concentration 0.001 mM) was “significant delay in excretion”; in the assay on LcS [3] (glucose final concentration 0.01 mM), “slight delay in excretion”. The “time after which cF began to be rapidly excreted” value with LcS [3] (glucose final concentration 10 mM, LcS with cF accumulated in advance) was “about 3 minutes”.
As to `O=C[C@@H](O)[C@@H](O)[C@H](O)[C@H](O)CO` [D-mannose], the cF excretion activity result in the assay on LcS [1] is recorded as “+ (A case where 90% or more of the total bacterial cells were counted as cF^− was determined to have cF excretion activity)”. Besides, the Assimilability entry in the assay with LcS [2] was “+”.
As for `O=C[C@H](O)[C@@H](O)[C@@H](O)CO` [L-arabinose], in the assay with LcS [1], the cF excretion activity entry was “− (those determined to have no cF excretion activity are indicated by −)”. For the same molecule, in the assay with LcS [2], the Assimilability entry is recorded as “−”.
For the molecule `C[C@H](O)[C@H](O)[C@@H](O)[C@@H](O)C=O` [L-rhamnose], in the assay with LcS [1], the cF excretion activity result is reported as “− (those determined to have no cF excretion activity are indicated by −)”. Also, the Assimilability result in the assay on LcS [2] was “−”.
The like results for `O=C(CO)[C@@H](O)[C@H](O)[C@@H](O)CO` [L-sorbose] were, in that order, “− (those determined to have no cF excretion activity are indicated by −)” and “+”.
Taken in the same sequence, the figures for `OC[C@H]1O[C@@H](O[C@H]2[C@H](O)[C@@H](O)C(O)O[C@@H]2CO)[C@H](O)[C@@H](O)[C@H]1O` (stereo partly shown) [Lactose] were “− (those determined to have no cF excretion activity are indicated by −)” and “+”.
Taken in the same sequence, the figures for `OC[C@H]1O[C@@](CO)(O[C@H]2O[C@H](CO)[C@@H](O)[C@H](O)[C@H]2O)[C@@H](O)[C@@H]1O` [sucrose] were “− (those determined to have no cF excretion activity are indicated by −)” and “+”.
As to carboxyfluorescein diacetate [cFDA], the “time after which cF accumulation amount was almost saturated” value in the assay on LcS [3] (cFDA 50 μM, no sugar, DPBS suspension of LcS) came out at 20 min.
